{
  "source": "patent US20120059034A1",
  "about": "“NOVEL CRYSTALLINE HYDRATE, AMORPHOUS AND POLYMORPHIC FORMS OF DIHYDRO-BENZOXAZOLE-6-YL-ACETAMIDE DERIVATIVE AND PROCESSES FOR THEIR PREPARATION” (priority 2009, published 2012)",
  "key": {"[1]": {"test": "Thermal stability, loss of water of hydration at 50° C. in N2 atmosphere", "format": "physicochemical", "description": "(§1) 1. Characteristic reflections of radiprodil monohydrate are the followings: 4.9, 15.1, 18.1, 26.8 and 30.2±0.2° 2θ 2. Characteristic IR absorption bands of radiprodil monohydrate are the followings: 3644, 1836, 1809, 1789, 1645 and 919±4 cm^−1. 3. Characteristic Raman absorption bands of radiprodil monohydrate are the followings: 2887, 1642, 1484, 1295 and 726±4 cm^−1. […] While the dihydrate Form can be dehydrated relatively easily at elevated temperature, the monohydrate Form is sufficiently stable under such conditions. […] This relative stability of the monohydrate Form compared to the dihydrate Form is advantageous in formulation technological steps involving elevated temperatures."}, "[2]": {"test": "Solubility and dissolution rate of solid forms", "format": "physicochemical", "description": "as §1\n(§2) 1. There are no reflections on XRPD pattern of radiprodil amorphous form. 2. Characteristic IR absorption bands of radiprodil amorphous form are the followings: 3275, 1768, 1685, 1219 and 544±4 cm^−1. 3. Characteristic Raman absorption bands of radiprodil amorphous are the followings: 3071, 1687, 1640, 1414, 1280 and 852±4 cm^−1. […] One particular advantage of the discovered amorphous Form is that it is relatively stable."}, "[3]": {"test": "Pharmacokinetic profile in dogs (plasma concentrations by validated HPLC(UV) method)", "format": "in vivo", "conditions": "5 mg/kg dose adjusted to the anhydrous active substance, plasma samples up to 24 hours post dose", "description": "Another essential value of the dihydrate Form is the observed better pharmacokinetic profile in dogs compared to the anhydrate Form A. Both forms in 5 mg/kg dose adjusted to the anhydrous active substance were administered to dogs and relevant pharmacokinetic parameters (AUC, Cmax) were calculated from the plasma profiles of the individual animals. The animals were […] seventeen hours before and six hours after drug administration. Plasma concentrations were measured in the trial samples taken up to 24 hours post dose by a validated HPLC(UV) method."}, "[4]": {"test": "Storage stability of the amorphous form against crystallization", "format": "physicochemical", "conditions": "normal laboratory conditions, several months", "from_the_text": "as §2"}, "[5]": {"test": "Hygroscopicity, weight gain at elevated humidity", "format": "physicochemical", "conditions": "50° C./90% RH, 10 days", "description": "(§3) (IV) a DSC trace substantially in accordance with FIG. 5; • Characteristic diffraction and spectroscopic data of radiprodil anhydrate Form A are as follows: 1. Characteristic XRPD reflections of radiprodil anhydrate Form A are the following: 7.8, 22.0, 23.7, 27.0 and 27.6±0.2° 2 θ 2. Characteristic IR absorption bands of radiprodil anhydrate Form A are the following: 3295, 2863, 1852, 1768, 1058 and 635±4 cm^−1. 3. Characteristic Raman absorption bands of radiprodil anhydrate Form A are the following: 3106, 1680, 1641, 1470, 1274 and 507±4 cm^−1. […] All the other discovered solid forms can be converted to anhydrate Form A in suspension. This conversion takes place in absolute ethanol or in ethanol:water mixtures within a few hours. This relative stability advantage of anhydrous Form A of radiprodil can be favorably utilized in the development of active ingredient as well as dosage forms that are sufficiently stable both chemically and physically during extended shelf life. […] Due to its physical stability and non-hygroscopic character this polymorphic form is particularly advantageous in dosage formulation processes where the active ingredient is exposed to water during the process, such as wet granulation."}, "[6]": {"test": "Stress stability of the solid form (chemical impurities and physical form)", "format": "physicochemical", "conditions": "stress conditions 25° C./75% RH; 50° C.; 50° C./oxygen; 50° C./75% RH; 50° C./90% RH; 75° C.; 75° C./oxygen, 10 days", "description": "as §3"}, "[7]": {"test": "Relative thermodynamic stability, conversion of solid forms in suspension", "format": "physicochemical", "conditions": "room temperature", "description": "as §3"}},
  "data": [
    {"smiles": "O=C(Nc1ccc2[nH]c(=O)oc2c1)C(=O)N1CCC(Cc2ccc(F)cc2)CC1", "note": "[monohydrate Form, 2-[4-(4-Fluorobenzyl)-piperidin-1-yl]-2-oxo-N-(2-oxo-2,3-dihydro-benzoxazol-6-yl)-acetamide monohydrate]", "values": [
      {"measurement": "weight loss (water of hydration)", "setting": "[1]; same conditions as dihydrate Form (2 hours)", "value": "does not show detectable weight loss"},
      {"measurement": "solubility compared to anhydrate Form A", "setting": "[2]", "value": "greater solubility"}
    ]},
    {"smiles": "O=C(Nc1ccc2[nH]c(=O)oc2c1)C(=O)N1CCC(Cc2ccc(F)cc2)CC1", "note": "[dihydrate Form, 2-[4-(4-Fluorobenzyl)-piperidin-1-yl]-2-oxo-N-(2-oxo-2,3-dihydro-benzoxazol-6-yl)-acetamide dihydrate]", "values": [
      {"measurement": "AUC24", "setting": "[3]; dihydrate", "value": 4491, "unit": "ng·h/mL"},
      {"measurement": "Cmax", "setting": "[3]; dihydrate", "value": 395, "unit": "ng/mL"},
      {"measurement": "time to loss of water of hydration", "setting": "[1]", "value": 2, "unit": "h"}
    ]},
    {"smiles": "O=C(Nc1ccc2[nH]c(=O)oc2c1)C(=O)N1CCC(Cc2ccc(F)cc2)CC1", "note": "[amorphous Form, 2-[4-(4-Fluorobenzyl)-piperidin-1-yl]-2-oxo-N-(2-oxo-2,3-dihydro-benzoxazol-6-yl)-acetamide amorphous form]", "values": [
      {"measurement": "crystallization on storage", "setting": "[4]", "value": "without crystallization"},
      {"measurement": "dissolution rate among the solid forms", "setting": "[2]", "value": "largest"},
      {"measurement": "solubility among the solid forms", "setting": "[2]", "value": "largest"}
    ]},
    {"smiles": "O=C(Nc1ccc2[nH]c(=O)oc2c1)C(=O)N1CCC(Cc2ccc(F)cc2)CC1", "note": "[anhydrate Form A, 2-[4-(4-Fluorobenzyl)-piperidin-1-yl]-2-oxo-N-(2-oxo-2,3-dihydro-benzoxazol-6-yl)-acetamide anhydrate Form A]", "values": [
      {"measurement": "AUC24", "setting": "[3]", "value": 1554, "unit": "ng·h/mL"},
      {"measurement": "Cmax", "setting": "[3]", "value": 125, "unit": "ng/mL"},
      {"measurement": "weight gain (hygroscopicity)", "setting": "[5]", "value": "did not show measurable weight gain"},
      {"measurement": "change of sum of chemical impurities and of physical form compared to the starting material", "setting": "[6]", "value": "neither the sum of chemical impurities nor the physical form has changed"},
      {"measurement": "thermodynamic stability among the discovered forms", "setting": "[7]", "value": "thermodynamically most stable form"}
    ]}
  ]
}
